The first assay relates to Dengue-2 (Strain New Guinea C). Nature of the assay: Viral yield assay against Dengue-2 in Vero cells. It is filed as cell-based, Dengue virus. As to conditions: Dengue virus, DENV2, Vero, 48 h, read-out: Activity (EC50 in μM) DENV-2. The gist of the method: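 Yield reduction, Vero; MOI 0.1; compound vs DMSO; 37° C; harvest 48 h p.i.; titer on Vero; EC50 fitted. Other serotypes run the same way.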
On to `COc1ccc(-c2ccc3c(N)c(C(=O)Nc4ccc(F)cc4)sc3n2)cc1OC` [Compound 541, 3-amino-6-(3,4-dimethoxyphenyl)-N-(4-fluorophenyl)thieno[2,3-b]pyridine-2-carboxamide], for which the EC50 is less than 5 µM. For `COc1ccc(-c2ccc3c(N)c(C(=O)Nc4ccc5c(c4)OCO5)sc3n2)cc1OC` [Compound 580, 3-amino-N-(1,3-benzodioxol-5-yl)-6-(3,4-dimethoxyphenyl)thieno[2,3-b] pyridine-2-carboxamide], the EC50 was less than 5 µM. On the same count and under the same terms, for `CCOc1cccc(NC(=O)c2sc3nc(-c4ccc(OC)c(OC)c4)ccc3c2N)c1` [Compound 582, 3-amino-6-(3,4-dimethoxyphenyl)-N-(3-ethoxyphenyl)thieno[2,3-b]pyridine-2-carboxamide] the value was less than 5 µM.

Staying with this assay, now noted: Dengue virus, DENV2; viral yield assay, Vero cells, MOI 0.1, 48 hours post infection; read-out: Activity (EC50 in μM) DENV-2.
As for `Cc1ccc(NC(=O)c2sc3nc(-c4ccc5c(c4)OCO5)ccc3c2N)cc1C` [Compound 528, 3-amino-6-(1,3-benzodioxol-5-yl)-N-(3,4-dimethylphenyl)thieno[2,3-b]pyridine-2-carboxamide], the EC50 is less than 5 µM.

Take `COc1ccc(C(F)(F)F)cc1NC(=O)c1sc2nc(-c3ccc(OC)c(OC)c3)ccc2c1N` [Compound 531, 3-amino-6-(3,4-dimethoxyphenyl)-N-[2-methoxy-5-(trifluoromethyl)phenyl]thieno [2,3-b]pyridine-2-carboxamide]: the concentration giving a half-maximal response (EC50) is less than 5 µM.

Regarding `COc1ccc(NC(=O)c2sc3nc(-c4ccc(OC)c(OC)c4)ccc3c2N)c(OC)c1` [Compound 536, 3-amino-N-(2,4-dimethoxyphenyl)-6-(3,4-dimethoxyphenyl)thieno[2,3-b]pyridine-2-carboxamide], the EC50 was less than 5 µM.

`Nc1c(C(=O)Nc2ccc(Cl)cc2Cl)sc2nc(-c3ccc4c(c3)OCO4)ccc12` [Compound 537, 3-amino-6-(1,3-benzodioxol-5-yl)-N-(2,4-dichlorophenyl)thieno[2,3-b]pyridine-2-carboxamide]: the EC50 is less than 5 µM. Take `Nc1c(C(=O)Nc2ccccc2F)sc2nc(-c3ccc4c(c3)OCO4)ccc12` [Compound 538, 3-amino-6-(1,3-benzodioxol-5-yl)-N-(2-fluorophenyl)thieno[2,3-b]pyridine-2-carboxamide]: the EC50 is less than 5 µM. On to `COc1ccc(-c2ccc3c(N)c(C(=O)Nc4ccc(F)cc4Cl)sc3n2)cc1OC` [Compound 539, 3-amino-N-(2-chloro-4-fluoro-phenyl)-6-(3,4-dimethoxyphenyl)thieno[2,3-b] pyridine-2-carboxamide], for which the EC50 was less than 5 µM. Turning to `COc1ccc(-c2ccc3c(N)c(C(=O)Nc4cccc(Cl)c4)sc3n2)cc1OC` [Compound 540, 3-amino-N-(3-chlorophenyl)-6-(3,4-dimethoxyphenyl)thieno[2,3-b]pyridine-2-carboxamide], the EC50 is less than 5 µM.

Take `COc1cccc(-c2ccc3c(N)c(C(=O)Nc4ccc(C)c(Cl)c4)sc3n2)c1` [Compound 544, 3-amino-N-(3-chloro-4-mehtyl-phenyl)-6-(3-methoxyphenyl)thieno[2,3-b] pyridine-2-carboxamide]: the EC50 is less than 5 µM. With `COc1cccc(-c2ccc3c(N)c(C(=O)Nc4ccc(Cl)cc4Cl)sc3n2)c1` [Compound 545, 3-amino-N-(2,4-dichlorophenyl)-6-(3-methoxyphenyl)thieno[2,3-b]pyridine-2-carboxamide], the concentration giving a half-maximal response (EC50) was less than 5 µM. Still for that read-out and setting: then `COc1cccc(-c2ccc3c(N)c(C(=O)Nc4cc(OC)ccc4Cl)sc3n2)c1` [Compound 548, 3-amino-N-(2-chloro-5-methoxy-phenyl)-6-(3-methoxyphenyl)thieno[2,3-b] pyridine-2-carboxamide], with less than 5 µM. On to `COc1cccc(-c2ccc3c(N)c(C(=O)Nc4ccc(Br)cc4C)sc3n2)c1` [Compound 549, 3-amino-N-(4-bromo-2-methyl-phenyl)-6-(3-methoxyphenyl)thieno[2,3-b] pyridine-2-carboxamide], for which the EC50 is less than 5 µM. In the case of `COc1cccc(-c2ccc3c(N)c(C(=O)Nc4ccc(F)cc4C)sc3n2)c1` [Compound 551, 3-amino-N-(4-fluoro-2-methyl-phenyl)-6-(3-methoxyphenyl)thieno[2,3-b] pyridine-2-carboxamide], the EC50 was less than 5 µM. For the molecule `CCOc1cccc(NC(=O)c2sc3nc(-c4cccc(OC)c4)ccc3c2N)c1` [Compound 552, 3-amino-N-(3-ethoxyphenyl)-6-(3-methoxyphenyl)thieno[2,3-b]pyridine-2-carboxamide], the EC50 was less than 5 µM. For the molecule `COc1cccc(-c2ccc3c(N)c(C(=O)Nc4ccc(C)cc4)sc3n2)c1` [Compound 553, 3-amino-6-(3-methoxyphenyl)-N-(p-tolyl)thieno[2,3-b]pyridine-2-carboxamide], the EC50 is less than 5 µM.

For the molecule `COc1cccc(-c2ccc3c(N)c(C(=O)Nc4ccc(C)cc4C)sc3n2)c1` [Compound 554, 3-amino-N-(2,4-dimethylphenyl)-6-(3-methoxyphenyl)thieno[2,3-b]pyridine-2-carboxamide], the EC50 was less than 5 µM. In the case of `COc1cccc(-c2ccc3c(N)c(C(=O)Nc4ccc(Br)cc4F)sc3n2)c1` [Compound 556, 3-amino-N-(4-bromo-2-fluoro-phenyl)-6-(3-methoxyphenyl)thieno[2,3-b]pyridine-2-carboxamide], the EC50 is less than 5 µM. Turning to `COc1cccc(-c2ccc3c(N)c(C(=O)Nc4ccc(F)cc4Cl)sc3n2)c1` [Compound 557, 3-amino-N-(2-chloro-4-fluoro-phenyl)-6-(3-methoxyphenyl)thieno[2,3-b] pyridine-2-carboxamide], the EC50 is less than 5 µM. Consider `COc1cccc(-c2ccc3c(N)c(C(=O)Nc4cc(C(F)(F)F)ccc4OC)sc3n2)c1` [Compound 558, 3-amino-6-(3-methoxyphenyl)-N-[2-methoxy-5-(trifluoromethyl)phenyl] thieno[2,3-b]pyridine-2-carboxamide], for which the EC50 was less than 5 µM. Same read-out and setting: for `COc1cccc(-c2ccc3c(N)c(C(=O)Nc4cc(C(F)(F)F)ccc4Cl)sc3n2)c1` [Compound 560, 3-amino-N-[2-chloro-5-(trifluoromethyl)phenyl]-6-(3-methoxyphenyl)thieno [2,3-b]pyridine-2-carboxamide] the value was less than 5 µM. Take `COc1cccc(-c2ccc3c(N)c(C(=O)Nc4cccc(C)c4C)sc3n2)c1` [Compound 562, 3-amino-N-(2,3-dimethylphenyl)-6-(3-methoxyphenyl)thieno[2,3-b]pyridine-2-carboxamide]: the EC50 is less than 5 µM. In the case of `COc1cccc(-c2ccc3c(N)c(C(=O)Nc4cccc(Cl)c4Cl)sc3n2)c1` [Compound 563, 3-amino-N-(2,3-dichlorophenyl)-6-(3-methoxypnenyl)thieno[2,3-b]pyridine-2-carboxamide], the EC50 is less than 5 µM. Take `COc1cccc(-c2ccc3c(N)c(C(=O)Nc4cc(Cl)cc(Cl)c4)sc3n2)c1` [Compound 564, 3-amino-N-(3,5-dichlorophenyl)-6-(3-methoxyphenyl)thieno[2,3-b]pyridine-2-carboxamide]: the EC50 is less than 5 µM. `COc1cccc(-c2ccc3c(N)c(C(=O)Nc4cc(F)ccc4C)sc3n2)c1` [Compound 565, 3-amino-N-(5-fluoro-2-methyl-phenyl)-6-(3-methoxyphenyl)thieno[2,3-b] pyridine-2-carboxamide]: the EC50 was less than 5 µM. On to `CCSc1nc2ccc(NC(=O)c3sc4nc(-c5cccc(OC)c5)ccc4c3N)cc2s1` [Compound 567, 3-amino-N-(2-ethylsulfanyl-1,3-benzo-thiazol-6-yl)-6-(3-methoxphenyl)thieno [2,3-b]pyridine-2-carboxamide], for which the EC50 is less than 5 µM. As for `CCCSc1nc2ccc(NC(=O)c3sc4nc(-c5cccc(OC)c5)ccc4c3N)cc2s1` [Compound 568, 3-amino-6-(3-methoxyphenyl)-N-(2-propylsulfanyl-1,3-benzothiazol-6-yl) thieno[2,3-b]pyridine-2-carboxamide], the 50% effective concentration (EC50) was less than 5 µM. On the same count and under the same terms, for `COc1ccc(-c2ccc3c(N)c(C(=O)Nc4cccc(Cl)c4C)sc3n2)cc1OC` [Compound 573, 3-amino-N-(3-chloro-2-methyl-phenyl)-6-(3,4-dimethoxyphenyl)thieno[2,3-b] pyridine-2-carboxamide] the value was less than 5 µM; for `COc1ccc(-c2ccc3c(N)c(C(=O)Nc4ccc(Br)cc4C)sc3n2)cc1OC` [Compound 578, 3-amino-N-(4-bromo-2-methyl-phenyl)-6-(3,4-dimethoxyphenyl)thieno[2,3-b] pyridine-2-carboxamide], less than 5 µM. `COc1ccc(-c2ccc3c(N)c(C(=O)Nc4ccc(Br)c(C)c4)sc3n2)cc1OC` [Compound 579, 3-amino-N-(4-bromo-3-methyl-phenyl)-6-(3,4-dimethoxyphenyl)thieno[2,3-b] pyridine-2-carboxamide]: the EC50 is less than 5 µM. On to `COc1ccc(-c2ccc3c(N)c(C(=O)Nc4ccccc4C)sc3n2)cc1OC` [Compound 581, 3-amino-6-(3,4-dimethoxyphenyl)-N-(o-tolyl)thieno[2,3-b]pyridine-2-carboxamide], for which the EC50 is less than 5 µM. Consider `COc1ccc(-c2ccc3c(N)c(C(=O)Nc4ccc(Cl)c(C(F)(F)F)c4)sc3n2)cc1OC` [Compound 585, 3-amino-N-[4-chloro-3-(trifluoromethyl)phenyl]-6-(3,4-dimethoxyphenyl)thieno [2,3-b]pyridine-2-carboxamide], for which the EC50 is less than 5 µM. In the case of `Cc1c(Cl)cccc1NC(=O)c1sc2nc(-c3ccc4c(c3)OCO4)ccc2c1N` [Compound 586, 3-amino-6-(1,3-benzodioxol-5-yl)-N-(3-chloro-2-methyl-phenyl)thieno[2,3-b] pyridine-2-carboxamide], the EC50 is less than 5 µM.

In the case of `Nc1c(C(=O)Nc2cc(Cl)ccc2Cl)sc2nc(-c3ccc4c(c3)OCO4)ccc12` [Compound 587, 3-amino-6-(1,3-benzodioxol-5-yl)-N-(2,5-dichlorophenyl)thieno[2,3-b]pyridine-2-carboxamide], the EC50 was less than 5 µM.

The values above are taken from patent publication US20170121344A1 (Siga Technologies, Inc., priority 2009, published 2017).
